Data from US20250381273A1, “Augmenting Mitochondria in Immune Cells for Improved Cancer Immunotherapy” (LEIBNIZ-INSTITUT FÜR IMMUNTHERAPIE (LIT), priority 2022, published 2025).

Key:
[1] = system: nanotube-mediated mitochondria transfer; conditions: Nature Nanotechnology (2022) 17, 98-106; cited from earlier work
[2] = system: mouse Mito-DsRed BMSCs or CD8+ T cells; assay: Inhibitor drug treatment study, mouse co-culture; format: cell-based; conditions: 1-10 μM, data not shown
Protocol: (§1) For pharmacological inhibition studies, both mouse and human Mito-DsRed BMSCs or CD8+ T cells were treated with 1-10 μM of farnesyltransferase/geranylgeranyltransferase 1 inhibitor (L-778123) (Biomol) incubated separately in their respective basal media for 7 hrs before or during co-culture. Cell viability of the different drug treatments was determined using the Trypan Blue exclusion test and quantified manually using a hemacytometer. All experiments were performed on at least 3-6 biological replicates/donors per condition.

[3] = system: human Mito-DsRed BMSCs or CD8+ T cells; assay: Inhibitor drug treatment study, human co-culture; format: cell-based; conditions: 1-10 μM, data not shown
Protocol: as §1

N#Cc1ccc(Cn2cncc2CN2CCN(c3cccc(Cl)c3)C(=O)C2)cc1 [L-788,123]
nanotube-mediated mitochondria transfer [1]: partially block
mitochondrial transfer in co-culture [2]: confirmed that TNTs is a primary mediator of mitochondrial transfer
mitochondrial transfer in co-culture [3]: confirmed that TNTs is a primary mediator of mitochondrial transfer
